Test results reported in patent publication US8952024B2, “Herbicidal pyrimidone derivatives” (E I du Pont de Nemours and Company, priority 2009, dated 2015).

How the values were obtained:
Format in all cases: in vivo
[1] = system: barnyardgrass (Echinochloa crus-galli); test: Test A pre-/postemergence plant response; details: for Barnyardgrass plant response rating: visual injury, 0 to 100 scale (0 no effect, 100 complete control), approx. ten days
Text: (§1) Seeds of barnyardgrass (Echinochloa crus-galli), large crabgrass (Digitaria sanguinalis), giant foxtail (Setaria faberii), morningglory (Ipomoea spp.), pigweed (Amaranthus retroflexus), velvetleaf (Abutilon theophrasti), wheat (Triticum aestivum) and corn (Zea mays) were planted into a blend of loam soil and sand and treated preemergence with a directed soil spray using test chemicals formulated in a non-phytotoxic solvent mixture which included a surfactant. At the same time these species were also treated with postemergence applications of test compounds formulated in the same manner.
(§2) Plants ranged in height from two to ten cm and were in the one- to two-leaf stage for the postemergence treatment. Treated plants and untreated controls were maintained in a greenhouse for approximately ten days, after which time all treated plants were compared to untreated controls and visually evaluated for injury. Plant response ratings, summarized in Table A, are based on a 0 to 100 scale where 0 is no effect and 100 is complete control. A dash (-) response means no test result.

[2] = system: corn (Zea mays); test: Test A pre-/postemergence plant response; details: for Corn plant response rating: visual injury, 0 to 100 scale (0 no effect, 100 complete control), approx. ten days
Text: as §1, §2

[3] = system: giant foxtail (Setaria faberii); test: Test A pre-/postemergence plant response
Text: as §1, §2

[4] = system: large crabgrass (Digitaria sanguinalis); test: Test A pre-/postemergence plant response; details: for Crabgrass, Large plant response rating: visual injury, 0 to 100 scale (0 no effect, 100 complete control), approx. ten days
Text: as §1, §2

[5] = system: morningglory (Ipomoea spp.); test: Test A pre-/postemergence plant response
Text: as §1, §2

[6] = system: pigweed (Amaranthus retroflexus); test: Test A pre-/postemergence plant response
Text: as §1, §2

[7] = system: velvetleaf (Abutilon theophrasti); test: Test A pre-/postemergence plant response
Text: as §1, §2

[8] = system: wheat (Triticum aestivum); test: Test A pre-/postemergence plant response
Text: as §1, §2

[9] = system: barnyardgrass (Echinochloa crus-galli); test: Test B flooded paddy test; details: for Plant response rating, Barnyardgrass: Flood (flooded paddy test), 13 to 15 days
Text: (§3) Plant species in the flooded paddy test consisted of rice (Oryza sativa), umbrella sedge (Cyperus difformis), ducksalad (Heteranthera limosa) and barnyardgrass (Echinochloa crus-galli) grown to the 2-leaf stage for testing. At the time of treatment, test pots were flooded with water to 3 cm above the soil surface, treated by application of test compounds directly to the paddy water, and then maintained at that water depth for the duration of the test.
(§4) Treated plants and controls were maintained in a greenhouse for 13 to 15 days, after which time all treated plants were visually evaluated and compared to controls. Plant response ratings, summarized in Table B, are based on a scale of 0 to 100 where 0 is no effect and 100 is complete control. A dash (-) response means no test result.

[10] = system: ducksalad (Heteranthera limosa); test: Test B flooded paddy test; details: for Plant response rating, Ducksalad: Flood (flooded paddy test), 13 to 15 days
Text: as §3, §4

[11] = system: rice (Oryza sativa); test: Test B flooded paddy test; details: for Plant response rating, Rice: Flood (flooded paddy test), 13 to 15 days
Text: as §3, §4

[12] = system: umbrella sedge (Cyperus difformis); test: Test B flooded paddy test; details: for Plant response rating, Sedge, Umbrella: Flood (flooded paddy test), 13 to 15 days
Text: as §3, §4

[13] = Postemergence, 125 g ai/ha, 0 to 100 scale where 0 is no effect and 100 is complete control
[14] = Preemergence, 125 g ai/ha, 0 to 100 scale where 0 is no effect and 100 is complete control, approximately ten days
[15] = Preemergence, 500 g ai/ha, 0 to 100 scale, 0 = no effect, 100 = complete control
[16] = Postemergence, 125 g ai/ha, visual injury, 0 to 100 scale (0 no effect, 100 complete control), approx. ten days
[17] = Postemergence, 500 g ai/ha, visual injury, 0 to 100 scale (0 no effect, 100 complete control), approx. ten days
[18] = 250 g ai/ha, flooded paddy test, visual rating on 0 to 100 scale (0 no effect, 100 complete control) after 13 to 15 days
[19] = 62 g ai/ha, scale of 0 to 100 where 0 is no effect and 100 is complete control
[20] = 125 g ai/ha, scale 0 to 100, 0 is no effect, 100 is complete control
[21] = Flood, 31 g ai/ha, scale 0 to 100 (0 no effect, 100 complete control)
[22] = Preemergence, 125 g ai/ha, 0 to 100 scale, 0 = no effect, 100 = complete control

O=C(C1=C(O)C2CCC(C2)C1=O)c1cnc(-c2ccccc2)n(CC2CCCO2)c1=O (stereo not drawn) [Compound 250]
40: Plant response rating, Barnyardgrass [1, 15]
50: Plant response rating, Barnyardgrass [1, 13] | Plant response rating, Velvetleaf [7, 14]
0: Plant response rating, Barnyardgrass [1, 14] | Plant response rating, Corn [2, 13] | Plant response rating, Corn [2, 14] | Plant response rating, Corn [2, 15] | Plant response rating, Wheat [8, 16] | Plant response rating, Wheat [8, 14] | Plant response rating, Barnyardgrass [9, 19] | Barnyardgrass plant response rating [9, 21] | Plant response rating, Flood, Rice [11, 18] | Plant response rating, Rice [11, 19] | Plant response rating, Rice [11, 20] | Rice plant response rating [11, 21] | Sedge, Umbrella plant response rating [12, 21]
30: Plant response rating, Foxtail, Giant [3, 14] | Plant response rating, Crabgrass, Large [4, 14] | Plant response rating, Ducksalad [10, 19] | Ducksalad plant response rating [10, 21]
70: Corn plant response rating ([2]; Postemergence, 500 g ai/ha) | Plant response rating, Ducksalad [10, 20] | Plant response rating, Flood, Sedge, Umbrella [12, 18]
75: Plant response rating, Flood, Ducksalad [10, 18]
65: Plant response rating, Sedge, Umbrella [12, 19] | Plant response rating, Sedge, Umbrella [12, 20]
100: Barnyardgrass plant response rating ([1]; Postemergence, 500 g ai/ha) | Foxtail, Giant plant response rating [3, 17] | Crabgrass, Large plant response rating ([4]; Postemergence, 500 g ai/ha) | Plant response rating, Morningglory [5, 16] | Morningglory plant response rating [5, 17] | Plant response rating, Pigweed [6, 16] | Pigweed plant response rating [6, 17] | Plant response rating, Pigweed [6, 15] | Plant response rating, Velvetleaf [7, 16] | Velvetleaf plant response rating [7, 17]
60: Plant response rating, Foxtail, Giant [3, 15] | Plant response rating, Crabgrass, Large [4, 13] | Plant response rating, Morningglory [5, 15] | Plant response rating, Pigweed [6, 14]
20: Wheat plant response rating [8, 17]
90: Plant response rating, Foxtail, Giant [3, 16] | Plant response rating, Crabgrass, Large [4, 15] | Plant response rating, Velvetleaf [7, 15]
10: Plant response rating, Morningglory [5, 14] | Plant response rating, Wheat [8, 15] | Plant response rating, Flood, Barnyardgrass [9, 18] | Plant response rating, Barnyardgrass [9, 20]

CCCn1c(-c2ccc3ccccc3c2)ncc(C(=O)C2=C(O)C3CCC(C3)C2=O)c1=O (stereo not drawn) [Compound 242]
20: Corn plant response rating ([2]; Postemergence, 500 g ai/ha) | Plant response rating, Crabgrass, Large [4, 13] | Plant response rating, Pigweed [6, 13]
30: Pigweed plant response rating [6, 17] | Wheat plant response rating [8, 17]
60: Crabgrass, Large plant response rating ([4]; Postemergence, 500 g ai/ha)
100: Morningglory plant response rating [5, 17]
40: Plant response rating, Morningglory [5, 13]
80: Foxtail, Giant plant response rating [3, 17]
10: Plant response rating, Crabgrass, Large [4, 15]
90: Barnyardgrass plant response rating ([1]; Postemergence, 500 g ai/ha) | Velvetleaf plant response rating [7, 17]
0: Plant response rating, Barnyardgrass [1, 22] | Plant response rating, Barnyardgrass [1, 15] | Plant response rating, Corn [2, 13] | Plant response rating, Corn [2, 22] | Plant response rating, Corn [2, 15] | Plant response rating, Foxtail, Giant [3, 22] | Plant response rating, Foxtail, Giant [3, 15] | Plant response rating, Crabgrass, Large [4, 22] | Plant response rating, Morningglory [5, 22] | Plant response rating, Morningglory [5, 15] | Plant response rating, Pigweed [6, 22] | Plant response rating, Pigweed [6, 15] | Plant response rating, Velvetleaf [7, 22] | Plant response rating, Velvetleaf [7, 15] | Plant response rating, Wheat [8, 13] | Plant response rating, Wheat [8, 22] | Plant response rating, Wheat [8, 15]
50: Plant response rating, Barnyardgrass [1, 13] | Plant response rating, Foxtail, Giant [3, 13] | Plant response rating, Velvetleaf [7, 13]

O=C(C1=C(O)C2CCC(C2)C1=O)c1cnc(-c2ccccc2)n(C2CCCCCCCCCCC2)c1=O (stereo not drawn) [Compound 247]
40: Plant response rating, Crabgrass, Large [4, 13]
80: Barnyardgrass plant response rating ([1]; Postemergence, 500 g ai/ha)
100: Plant response rating, Morningglory [5, 16] | Morningglory plant response rating [5, 17] | Plant response rating, Velvetleaf [7, 16] | Velvetleaf plant response rating [7, 17]
0: Plant response rating, Barnyardgrass [1, 14] | Plant response rating, Barnyardgrass [1, 15] | Plant response rating, Corn [2, 13] | Plant response rating, Corn [2, 14] | Plant response rating, Corn [2, 15] | Plant response rating, Foxtail, Giant [3, 16] | Plant response rating, Foxtail, Giant [3, 14] | Plant response rating, Foxtail, Giant [3, 15] | Plant response rating, Crabgrass, Large [4, 14] | Plant response rating, Crabgrass, Large [4, 15] | Plant response rating, Morningglory [5, 14] | Plant response rating, Morningglory [5, 15] | Plant response rating, Pigweed [6, 14] | Plant response rating, Pigweed [6, 15] | Plant response rating, Velvetleaf [7, 14] | Plant response rating, Velvetleaf [7, 15] | Plant response rating, Wheat [8, 16] | Wheat plant response rating [8, 17] | Plant response rating, Wheat [8, 14] | Plant response rating, Wheat [8, 15]
90: Pigweed plant response rating [6, 17]
30: Plant response rating, Barnyardgrass [1, 13] | Corn plant response rating ([2]; Postemergence, 500 g ai/ha) | Foxtail, Giant plant response rating [3, 17]
70: Crabgrass, Large plant response rating ([4]; Postemergence, 500 g ai/ha) | Plant response rating, Pigweed [6, 16]

CCCn1c(-c2ccc3c(c2)OCCO3)ncc(C(=O)C2=C(O)C3CCC(C3)C2=O)c1=O (stereo not drawn) [Compound 241]
0: Plant response rating, Corn [2, 22] | Plant response rating, Morningglory [5, 22] | Plant response rating, Wheat [8, 22]
20: Plant response rating, Corn [2, 13] | Plant response rating, Corn [2, 15] | Plant response rating, Crabgrass, Large [4, 22] | Plant response rating, Pigweed [6, 22] | Plant response rating, Velvetleaf [7, 22]
50: Corn plant response rating ([2]; Postemergence, 500 g ai/ha) | Plant response rating, Crabgrass, Large [4, 13] | Plant response rating, Pigweed [6, 15]
30: Plant response rating, Morningglory [5, 15]
70: Plant response rating, Foxtail, Giant [3, 15] | Crabgrass, Large plant response rating ([4]; Postemergence, 500 g ai/ha) | Plant response rating, Pigweed [6, 13]
90: Plant response rating, Barnyardgrass [1, 13] | Barnyardgrass plant response rating ([1]; Postemergence, 500 g ai/ha) | Plant response rating, Barnyardgrass [1, 15] | Foxtail, Giant plant response rating [3, 17] | Plant response rating, Crabgrass, Large [4, 15]
60: Plant response rating, Velvetleaf [7, 15] | Wheat plant response rating [8, 17]
80: Plant response rating, Foxtail, Giant [3, 13] | Pigweed plant response rating [6, 17]
100: Plant response rating, Morningglory [5, 13] | Morningglory plant response rating [5, 17] | Plant response rating, Velvetleaf [7, 13] | Velvetleaf plant response rating [7, 17]
10: Plant response rating, Barnyardgrass [1, 22] | Plant response rating, Foxtail, Giant [3, 22]
40: Plant response rating, Wheat [8, 13] | Plant response rating, Wheat [8, 15]
